Measurements from US5801174A, “Fused indole and quinoxaline derivatives, their preparation and use” (Neurosearch A/S, priority 1994, dated 1998).

Legend:
[1] = tested on: cultured cerebral cortex neurons; assay: 3H-GABA release, cultured cerebral cortex neurons; assay type: cell-based; conditions: Cerebral cortex neuron; inhibition of stimulated 3H-GABA release, mouse cortical neurons, Table 1
Description: The compounds of the invention have also been tested for their ability to inhibit GABA release from cultured cerebral cortex neurons in the following test:
^3 H-GABA Release, Cortical Neurons
Background: Neurons which express receptors for excitatory amino acids can be depolarized by such compounds and this depolarization will ultimately lead to a release of transmitter substance from the neurons. Cultured neurons obtained from 15-day-old mouse embryo cortex are mainly GABAergic and express all types of excitatory amino acid receptors. This means that they can be stimulated by high potassium or by the excitatory amino acids, NMDA, AMPA and kainate to release their neurotransmitter GABA.
^3 H-GABA may be used to label the GABA transmitter pool in the neurons and the release of ^3 H-GABA from the neurons may be used as a simple functional model for studies of the effects of excitatory amino acids and their antagonists.
Method: Cerebral cortices of 16-day-old mouse embryos are chopped in 0.4×0.4 mm cubes. The tissue is dissociated by mild trypsinization (0.1% (wt/vol) trypsin, 37° C., 15 min) and subsequently inoculated into poly-L-lysine-coated 3-cm Petri dishes containing a slightly modified DMEM (24.5 mM KCI, 30 mM glucose) supplemented with p-aminobenzoate (7 μM), insulin (100 mU/L) and 10% (vol/vol) horse serum. Cells are maintained in culture for 5-7 days with the addition of the antimitotic agent cytosine arbinoside (40 μM) from day 2 in vitro to prevent glial profileration. For further details and references, see Drejer et al. Exp. Brain Res. 47, 259 (1982).
Release experiments are performed using the model described by Drejer et al. Life Sci. 38, 2077 (1986). Cerebral cortex neurons cultured in Petri dishes (30 mm) are added 100 μM γ-vinyl-GABA one hour before the experiment in order to inhibit degradation of GABA in the neurons. 30 min before the experiment 5 μCi ^3 H-GABA is added to each culture and after this preloading period the cell monolayer at the bottom of the dish is covered with a piece of nylon mesh to protect the cells against mechanical damage and to facilitate dispersion of medium over the cell layer. The preloading medium is removed and the Petri dishes are placed in a superfusion system consisting of a peristaltic pump continously delivering thermostated 37° C. superfusion medium HEPES buffered saline (HBS): 10 mM HEPES, 135 mM NaCl, 5 mM KCI, 0.6 mM MgSO4, 1.0 mM CaCl2 and 6 mM D-glucose; pH 7.4) from a reservoir to the top of the slightly tilted Petri dish. The medium is continously collected from the lower part of the dish and delivered to a fraction collector. Initially, the cells are superfused with HBS for 15 min (flow rate 2 ml/min). Then the cells are stimulated for 30 sec every 4 min by changing the superfusion medium from HBS to a corresponding medium containing […].
Test subtances are dissolved in 50% DMSO, 48% ethanol. The final DMSO and ethanol concentration in the assay must not exceed 0.1%.
The stimulated release of ^3 H-GABA (cpm) are corrected for the mean basal release(cpm) before and after stimulation.
The stimulated release in the presence of antagonists are expressed relative to the stimulated release and the IC50 value for the antagonist is calculated (the concentration (μM) of the test substance which inhibit 50% of the stimulated ^3 H-GABA release).
(§1) The test results obtained by testing the compounds of the invention for their in-vitro AMPA receptor affinity and their ability to inhibit GABA release are presented in the following table: […]

AMPA receptor = AMPA receptor binding affinity (in vitro); conditions: Table 1
Description: In Vitro activity (receptor affinity):
as §1

IC50 [1] [nM]	IC50 (AMPA receptor) [nM]	SMILES
877	68	CN1CCc2c(-c3ccc(S(=O)(=O)N4CCN(c5ccc(Cl)cc5)CC4)cc3)cc3c(c2C1)NC(=O)C3=NO [8-methyl-5-(4-(4-(4-chlorophenyl)piperazinosulfonyl)-phenyl)-6,7,8,9-tetrahydro-1H-pyrrolo[3,2-h]-isoquinoline-2,3-dione-3-oxime]
1900	540	CN1CCc2c(-c3ccc(S(=O)(=O)N(Cc4ccccc4)Cc4ccccc4)cc3)cc3c(c2C1)NC(=O)C3=NO [8-methyl-5-(4-(N,N-dibenzylsulphamoyl)-phenyl)-6,7,8,9-tetrahydro-1H-pyrrolo[3,2-h]-isoquinoline-2,3-dione-3-oxime]
4500	1600	CCN1Cc2c(-c3ccc(S(=O)(=O)N(C)C)cc3)cc3c(c2C1)NC(=O)C3=NO [7-ethyl-5-(4-(N,N-dimethylsulphamoyl)phenyl)-1,6,7,8-tetrahydrobenzo[1,2-b:3,4-c]dipyrrole-2,3-dione-3-oxime]
5500	470	CN1CCc2c(-c3ccc(S(=O)(=O)N(C)C)cc3)cc3c(c2C1)NC(=O)C3=NOC(C)(C)C [8-methyl-5-(4-(N,N-dimethylsulphamoyl)-phenyl)-6,7,8,9-tetrahydro-1H-pyrrolo[3,2-h]-isoquinoline-2,3-dione-3-O-t-butyloxime]
450	38	CCN(CC)CCN(CCN(CC)CC)S(=O)(=O)c1ccc(-c2cc3c(c4c2CCN(C)C4)NC(=O)C3=NO)cc1 [8-methyl-5-(4-(N,N-di(2-(N,N-diethylamino)ethyl)-sulphamoyl)-phenyl)-6,7,8,9-tetrahydro-1H-pyrrolo[3,2-h]-isoquinoline-2,3-dione-3-oxime]
240	27	CN1CCc2c(-c3ccc(S(=O)(=O)N4CCCCC4)cc3)cc3c(c2C1)NC(=O)C3=NO [8-methyl-5-(4-(piperidinosulfonyl)-phenyl)-6,7,8,9-tetrahydro-1H-pyrrolo[3,2-h]-isoquinoline-2,3-dione-3-oxime]
30	40	CN1CCc2c(-c3ccc(S(=O)(=O)N4CCOCC4)cc3)cc3c(c2C1)NC(=O)C3=NO [8-methyl-5-(4-(morpholinosulfonyl)phenyl)-6,7,8,9-tetrahydro-1H-pyrrolo[3,2-h]-isoquinoline-2,3-dione-3-oxime]
310	190	CN(C)CCN(C)S(=O)(=O)c1ccc(-c2cc3c(c4c2CCN(C)C4)NC(=O)C3=NO)cc1 [8-methyl-5-(4-(N-methyl-N-(2-(N,N-dimethylamino)-ethyl)sulphamoyl)-phenyl)-6,7,8,9-tetrahydro-1H-pyrrolo[3,2-h]-isoquinoline-2,3-dione-3-oxime]
330	40	CN1CCc2c(-c3ccc(S(=O)(=O)NCCO)cc3)cc3c(c2C1)NC(=O)C3=NO [8-methyl-5-(4-(N-(2-hydroxyethyl)sulphamoyl)-phenyl)-6,7,8,9-tetrahydro-1H-pyrrolo[3,2-h]-isoquinoline-2,3-dione-3-oxime]
240	30	CN1CCc2c(-c3ccc(S(=O)(=O)NC(C)(C)C)cc3)cc3c(c2C1)NC(=O)C3=NO [8-methyl-5-(4-(N-t-butylsulphamoyl)-phenyl)-6,7,8,9-tetrahydro-1H-pyrrolo[3,2-h]-isoquinoline-2,3-dione-3-oxime]
100	19	CN1CCc2c(-c3ccc(S(=O)(=O)N4CCN(CCO)CC4)cc3)cc3c(c2C1)NC(=O)C3=NO [8-methyl-5-(4-(4-(2-hydroxyethyl)piperazinosulfonyl)-phenyl)-6,7,8,9-tetrahydro-1H-pyrrolo[3,2-h]-isoquinoline-2,3-dione-3-oxime]
1700	200	CON=C1C(=O)Nc2c1cc(-c1ccc(S(=O)(=O)N(C)C)cc1)c1c2CN(C)CC1 [8-methyl-5-(4-(N,N-dimethylsulphamoyl)-phenyl)-6,7,8,9-tetrahydro-1H-pyrrolo[3,2-h]-isoquinoline-2,3-dione-3-O-methyloxime]
